Results published in ChEMBL document CHEMBL5465560, “Selectivity Literature for EUbOPEN Chemogenomic Library” (2024).

Experiments:
Settings in all cases: at 10 µM
[1] = biological target: T1, Serine/threonine-protein kinase PLK4 (Homo sapiens) (UniProt O00444); test: Selectivity interaction (Ambit kinase binding assay panel) EUB0000608a PLK4
T1 sequence (whole entry): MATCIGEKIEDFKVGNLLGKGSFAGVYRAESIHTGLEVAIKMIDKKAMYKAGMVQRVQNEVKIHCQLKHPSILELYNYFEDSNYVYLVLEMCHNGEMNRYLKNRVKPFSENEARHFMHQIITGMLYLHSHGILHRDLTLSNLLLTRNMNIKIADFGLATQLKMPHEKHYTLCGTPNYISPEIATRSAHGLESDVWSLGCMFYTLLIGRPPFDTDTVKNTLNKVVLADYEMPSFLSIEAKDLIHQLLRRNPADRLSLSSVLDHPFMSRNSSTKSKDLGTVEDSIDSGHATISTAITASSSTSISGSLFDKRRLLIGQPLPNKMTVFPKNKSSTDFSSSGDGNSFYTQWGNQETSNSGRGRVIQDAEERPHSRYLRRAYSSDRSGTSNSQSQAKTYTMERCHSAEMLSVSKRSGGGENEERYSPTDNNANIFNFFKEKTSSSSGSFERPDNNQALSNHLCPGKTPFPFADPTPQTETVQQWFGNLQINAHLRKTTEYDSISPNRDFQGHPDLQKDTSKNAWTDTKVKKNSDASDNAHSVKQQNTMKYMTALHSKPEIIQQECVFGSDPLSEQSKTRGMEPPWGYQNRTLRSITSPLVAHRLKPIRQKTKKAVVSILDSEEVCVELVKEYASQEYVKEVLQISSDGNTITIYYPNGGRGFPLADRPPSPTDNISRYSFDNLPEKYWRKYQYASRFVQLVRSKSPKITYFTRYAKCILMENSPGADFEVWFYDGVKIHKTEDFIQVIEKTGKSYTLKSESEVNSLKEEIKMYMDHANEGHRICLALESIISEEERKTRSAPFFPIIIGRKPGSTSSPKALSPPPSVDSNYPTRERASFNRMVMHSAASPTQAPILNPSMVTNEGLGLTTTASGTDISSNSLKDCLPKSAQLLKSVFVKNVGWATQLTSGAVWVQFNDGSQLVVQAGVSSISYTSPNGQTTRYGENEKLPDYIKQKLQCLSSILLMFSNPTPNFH

[2] = biological target: T2, Cyclin-G-associated kinase (Homo sapiens) (UniProt O14976); test: Selectivity interaction (Ambit kinase binding assay panel) EUB0000608a GAK
T2 sequence (whole entry): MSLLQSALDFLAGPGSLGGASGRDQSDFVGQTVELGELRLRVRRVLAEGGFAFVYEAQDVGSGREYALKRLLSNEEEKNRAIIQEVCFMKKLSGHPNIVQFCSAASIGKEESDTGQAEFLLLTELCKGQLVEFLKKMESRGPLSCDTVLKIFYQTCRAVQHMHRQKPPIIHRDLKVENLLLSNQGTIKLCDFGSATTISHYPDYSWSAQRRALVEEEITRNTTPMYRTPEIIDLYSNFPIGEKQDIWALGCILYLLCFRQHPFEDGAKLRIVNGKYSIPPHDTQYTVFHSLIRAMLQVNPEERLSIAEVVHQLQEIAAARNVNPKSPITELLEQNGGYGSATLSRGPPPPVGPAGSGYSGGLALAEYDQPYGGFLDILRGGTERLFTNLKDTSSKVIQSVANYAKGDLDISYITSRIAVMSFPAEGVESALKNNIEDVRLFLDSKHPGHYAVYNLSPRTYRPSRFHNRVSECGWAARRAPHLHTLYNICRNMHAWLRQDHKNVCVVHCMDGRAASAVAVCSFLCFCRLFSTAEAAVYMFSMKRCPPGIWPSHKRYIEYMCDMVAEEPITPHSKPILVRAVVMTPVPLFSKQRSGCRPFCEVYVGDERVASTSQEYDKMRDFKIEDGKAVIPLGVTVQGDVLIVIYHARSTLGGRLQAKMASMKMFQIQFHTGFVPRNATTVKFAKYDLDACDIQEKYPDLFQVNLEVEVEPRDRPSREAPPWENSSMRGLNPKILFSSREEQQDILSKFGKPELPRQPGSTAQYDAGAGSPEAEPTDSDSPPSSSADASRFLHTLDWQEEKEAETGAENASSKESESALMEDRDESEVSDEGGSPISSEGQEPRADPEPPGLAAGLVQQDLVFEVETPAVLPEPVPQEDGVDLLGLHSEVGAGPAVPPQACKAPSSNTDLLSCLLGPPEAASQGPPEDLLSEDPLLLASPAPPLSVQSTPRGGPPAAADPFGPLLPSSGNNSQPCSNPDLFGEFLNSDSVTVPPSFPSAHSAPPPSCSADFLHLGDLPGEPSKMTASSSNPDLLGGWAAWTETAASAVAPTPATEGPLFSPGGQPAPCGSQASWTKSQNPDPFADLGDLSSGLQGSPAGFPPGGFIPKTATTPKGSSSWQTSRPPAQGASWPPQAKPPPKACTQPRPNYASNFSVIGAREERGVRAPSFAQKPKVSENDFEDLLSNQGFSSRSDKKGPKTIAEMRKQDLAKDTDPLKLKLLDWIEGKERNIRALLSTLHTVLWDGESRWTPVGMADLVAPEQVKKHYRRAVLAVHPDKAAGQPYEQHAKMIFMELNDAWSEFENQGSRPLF

[3] = biological target: T3, Dual specificity protein kinase TTK (Homo sapiens) (UniProt P33981); test: Selectivity interaction (Ambit kinase binding assay panel) EUB0000608a TTK
T3 sequence (whole entry): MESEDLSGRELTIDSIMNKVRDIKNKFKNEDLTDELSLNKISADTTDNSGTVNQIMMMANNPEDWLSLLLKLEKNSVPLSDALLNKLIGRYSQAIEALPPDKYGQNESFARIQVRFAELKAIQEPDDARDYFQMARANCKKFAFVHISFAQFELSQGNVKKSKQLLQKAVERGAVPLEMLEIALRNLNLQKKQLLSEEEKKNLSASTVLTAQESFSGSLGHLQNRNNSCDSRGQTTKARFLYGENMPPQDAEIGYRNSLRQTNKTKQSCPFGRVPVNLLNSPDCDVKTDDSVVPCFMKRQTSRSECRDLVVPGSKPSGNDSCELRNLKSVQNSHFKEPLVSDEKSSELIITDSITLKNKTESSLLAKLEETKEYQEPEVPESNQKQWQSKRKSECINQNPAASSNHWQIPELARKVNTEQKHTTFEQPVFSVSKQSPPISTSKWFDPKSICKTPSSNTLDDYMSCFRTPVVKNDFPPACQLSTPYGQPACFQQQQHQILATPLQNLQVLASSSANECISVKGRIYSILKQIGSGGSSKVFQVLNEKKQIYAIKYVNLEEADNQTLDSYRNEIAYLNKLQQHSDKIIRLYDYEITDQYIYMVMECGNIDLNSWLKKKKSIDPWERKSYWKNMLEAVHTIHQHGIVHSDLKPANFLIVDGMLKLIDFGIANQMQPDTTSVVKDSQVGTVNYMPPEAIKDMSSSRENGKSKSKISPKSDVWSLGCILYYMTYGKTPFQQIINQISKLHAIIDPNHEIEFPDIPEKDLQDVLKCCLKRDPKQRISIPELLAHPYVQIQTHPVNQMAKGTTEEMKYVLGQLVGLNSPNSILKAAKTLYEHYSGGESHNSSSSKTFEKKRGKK

[4] = biological target: Serine/threonine-protein kinase PLK3 (Homo sapiens, UniProt Q9H4B4); test: Selectivity interaction (Ambit kinase binding assay panel) EUB0000608a PLK3
[5] = biological target: Receptor-type tyrosine-protein kinase FLT3 (Homo sapiens) (UniProt P36888); test: Selectivity interaction (Ambit kinase binding assay panel) EUB0000608a FLT3
Focal adhesion kinase 1 = Focal adhesion kinase 1 (Homo sapiens, UniProt Q05397); test: Selectivity interaction (Ambit kinase binding assay panel) EUB0000608a PTK2
Focal adhesion kinase 1, sequence (Q05397 2-1052 limits assumed): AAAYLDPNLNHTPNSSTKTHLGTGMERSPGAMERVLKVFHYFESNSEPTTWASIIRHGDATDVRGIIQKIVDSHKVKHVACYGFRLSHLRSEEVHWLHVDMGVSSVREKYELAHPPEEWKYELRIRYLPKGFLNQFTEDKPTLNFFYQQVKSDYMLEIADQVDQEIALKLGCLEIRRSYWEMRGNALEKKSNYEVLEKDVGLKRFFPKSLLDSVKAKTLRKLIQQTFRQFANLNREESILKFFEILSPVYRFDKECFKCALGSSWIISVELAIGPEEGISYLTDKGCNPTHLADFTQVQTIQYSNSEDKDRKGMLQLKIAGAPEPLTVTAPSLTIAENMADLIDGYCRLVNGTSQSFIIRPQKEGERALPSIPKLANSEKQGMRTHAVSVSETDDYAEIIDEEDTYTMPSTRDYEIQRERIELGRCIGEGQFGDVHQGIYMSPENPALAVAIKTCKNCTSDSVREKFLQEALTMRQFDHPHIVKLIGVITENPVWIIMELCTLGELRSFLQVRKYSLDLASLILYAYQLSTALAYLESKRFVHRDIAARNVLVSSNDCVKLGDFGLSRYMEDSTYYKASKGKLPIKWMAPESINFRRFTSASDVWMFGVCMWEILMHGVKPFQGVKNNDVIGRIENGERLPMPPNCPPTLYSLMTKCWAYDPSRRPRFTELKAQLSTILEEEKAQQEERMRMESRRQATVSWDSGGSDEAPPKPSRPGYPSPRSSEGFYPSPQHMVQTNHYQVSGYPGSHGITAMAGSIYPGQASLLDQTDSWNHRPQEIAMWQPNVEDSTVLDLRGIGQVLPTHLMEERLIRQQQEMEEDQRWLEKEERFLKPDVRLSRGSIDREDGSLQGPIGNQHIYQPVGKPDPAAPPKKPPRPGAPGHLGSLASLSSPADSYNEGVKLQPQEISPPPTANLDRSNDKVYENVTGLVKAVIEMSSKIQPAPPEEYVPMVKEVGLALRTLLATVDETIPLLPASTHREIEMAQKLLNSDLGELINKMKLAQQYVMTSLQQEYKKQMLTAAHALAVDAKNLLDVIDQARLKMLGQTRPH

Receptor-type tyrosine-protein kinase FLT3 (Homo sapiens), sequence (P36888 whole entry): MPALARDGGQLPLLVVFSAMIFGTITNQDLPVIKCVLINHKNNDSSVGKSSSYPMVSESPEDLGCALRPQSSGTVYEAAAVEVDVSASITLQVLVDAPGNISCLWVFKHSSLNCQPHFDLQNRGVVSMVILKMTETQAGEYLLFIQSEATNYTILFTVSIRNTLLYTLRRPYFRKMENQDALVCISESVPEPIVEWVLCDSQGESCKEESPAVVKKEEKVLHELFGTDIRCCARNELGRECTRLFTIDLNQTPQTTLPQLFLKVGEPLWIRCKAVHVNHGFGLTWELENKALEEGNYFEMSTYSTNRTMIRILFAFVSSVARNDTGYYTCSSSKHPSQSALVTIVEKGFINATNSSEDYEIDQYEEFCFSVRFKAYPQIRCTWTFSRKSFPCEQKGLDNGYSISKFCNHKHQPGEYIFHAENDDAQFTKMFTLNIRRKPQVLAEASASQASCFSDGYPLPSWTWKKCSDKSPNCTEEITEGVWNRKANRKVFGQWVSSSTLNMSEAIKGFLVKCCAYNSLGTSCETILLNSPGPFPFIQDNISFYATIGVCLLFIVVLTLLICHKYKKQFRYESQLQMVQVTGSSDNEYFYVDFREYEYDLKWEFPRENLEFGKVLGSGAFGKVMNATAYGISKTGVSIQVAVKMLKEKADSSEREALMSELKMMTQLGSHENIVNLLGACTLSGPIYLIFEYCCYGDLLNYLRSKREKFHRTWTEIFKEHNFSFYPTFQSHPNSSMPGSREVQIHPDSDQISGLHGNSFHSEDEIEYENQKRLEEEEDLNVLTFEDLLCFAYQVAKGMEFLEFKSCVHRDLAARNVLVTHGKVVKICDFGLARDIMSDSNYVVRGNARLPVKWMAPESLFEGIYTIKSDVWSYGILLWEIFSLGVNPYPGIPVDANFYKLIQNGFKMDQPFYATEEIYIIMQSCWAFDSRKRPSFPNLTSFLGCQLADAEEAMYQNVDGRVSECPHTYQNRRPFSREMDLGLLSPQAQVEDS
Serine/threonine-protein kinase PLK3, sequence (Q9H4B4 whole entry, looked up): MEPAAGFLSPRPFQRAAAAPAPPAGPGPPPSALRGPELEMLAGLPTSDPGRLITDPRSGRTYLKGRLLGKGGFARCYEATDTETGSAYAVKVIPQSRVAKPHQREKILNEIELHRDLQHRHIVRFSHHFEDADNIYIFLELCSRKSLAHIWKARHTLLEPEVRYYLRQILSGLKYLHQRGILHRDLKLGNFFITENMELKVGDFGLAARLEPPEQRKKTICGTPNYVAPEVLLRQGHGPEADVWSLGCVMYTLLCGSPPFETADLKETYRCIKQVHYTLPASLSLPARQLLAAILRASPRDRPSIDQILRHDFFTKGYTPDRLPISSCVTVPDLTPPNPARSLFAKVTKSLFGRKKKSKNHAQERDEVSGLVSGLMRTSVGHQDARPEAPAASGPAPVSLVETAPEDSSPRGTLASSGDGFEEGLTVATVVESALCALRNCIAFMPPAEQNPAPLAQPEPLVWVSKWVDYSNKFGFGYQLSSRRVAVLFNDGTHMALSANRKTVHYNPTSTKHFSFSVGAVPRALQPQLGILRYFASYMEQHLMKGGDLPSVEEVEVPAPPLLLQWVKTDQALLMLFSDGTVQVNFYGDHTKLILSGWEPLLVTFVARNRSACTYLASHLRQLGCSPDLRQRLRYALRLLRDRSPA

`CCOc1cc(N2CCC(O)CC2)ccc1Nc1ncc2c(n1)N(C1CCCC1)CCC(=O)N2C` was tested, and the % of control [1] was 27%, the % of control [2] was 2% and the % of control [3] was 3.2%. It also gave a % of control [4] of 15%, a % of control [5] of 0% and a % of control (Focal adhesion kinase 1) of 24%.
